Assay results taken from PubChem BioAssay (NCI).
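Grown in 96-well plates, cells were treated for 48 hours with each compound at five concentrations. Insufficient inhibition: endpoint recorded as highest concentration tested. GI50 is the concentration that inhibits growth by half. TGI denotes the concentration required for complete inhibition of growth.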

What was measured:
Assay in all cases: DTP human tumour cell line panel, 48 h
COLO 205 colon = test system: COLO 205 colon
HL-60(TB) leukemia = test system: HL-60(TB) leukemia
HOP-92 NSCLC = test system: HOP-92 NSCLC
NCI-H226 lung = test system: NCI-H226 lung
NCI-H522 lung = test system: NCI-H522 lung
OVCAR-3 ovarian = test system: OVCAR-3 ovarian
OVCAR-5 ovarian = test system: OVCAR-5 ovarian
SF-295 CNS = test system: SF-295 CNS
SK-MEL-5 melanoma = test system: SK-MEL-5 melanoma
SNB-75 CNS = test system: SNB-75 CNS
U251 CNS = test system: U251 CNS
M19-MEL melanoma = test system: M19-MEL melanoma
SF-268 CNS = test system: SF-268 CNS
SF-539 CNS = test system: SF-539 CNS

SMILES | TGI (COLO 205 colon) [µM] | TGI (HL-60(TB) leukemia) [µM] | TGI (HOP-92 NSCLC) [µM] | TGI (NCI-H226 lung) [µM] | TGI (NCI-H522 lung) [µM] | TGI (OVCAR-3 ovarian) [µM] | TGI (OVCAR-5 ovarian) [µM] | TGI (SF-295 CNS) [µM] | TGI (SK-MEL-5 melanoma) [µM] | TGI (SNB-75 CNS) [µM] | TGI (U251 CNS) [µM] | TGI (M19-MEL melanoma) [µM] | TGI (SF-268 CNS) [µM] | TGI (SF-539 CNS) [µM] | GI50 (COLO 205 colon) [µM] | GI50 (HL-60(TB) leukemia) [µM] | GI50 (HOP-92 NSCLC) [µM] | GI50 (NCI-H522 lung) [µM] | GI50 (OVCAR-3 ovarian) [µM] | GI50 (SF-268 CNS) [µM]
CO/C(=N/N1CC1C(F)(F)F)c1ccncc1 (configuration not stated) | > 100 | > 100 | > 100 | > 100 | > 100 | > 100 | > 100 | > 100 | > 100 | > 100 | > 100 |  |  |  |  |  |  |  |  | 
CCCCOC(=O)CN1C(=O)c2ccccc2C1=O | > 100 | > 100 | > 100 | > 100 | > 100 | > 100 | > 100 | > 100 | > 100 | > 100 | > 100 | > 100 | > 100 | > 100 |  |  |  |  |  | 
O=C(CCl)N1CCCCC1C1(c2cc3ccccc3[nH]2)OCCO1 (configuration not stated) | 12.1 | > 100 | 24.7 | 16.3 | 0.448 | 5.34 | 17.2 | 11.5 | 22.6 | 7.3 | 12.7 |  | 15.4 | 4.51 |  |  |  |  |  | 
CN(C)CCOc1cc2c(c3ccccc13)-c1ccccc1C2=O | 3.68 | 2.7 | 4.25 | 5.69 | 3.08 | 4.99 | 7.05 | 4.42 | 2.96 | 4.64 | 6.58 | 2.89 | 3.24 | 3.27 |  |  |  |  |  | 
C#CCCCC(=C)C[C@H](OCc1ccccc1)[C@H]1OC(=O)[C@@H]1C |  | > 100 | > 100 | > 100 |  | > 100 | > 100 | > 100 |  | > 100 | > 100 |  | > 100 | 68.5 |  |  |  |  |  | 
Cc1nc(Nc2nnc(-c3cc([N+](=O)[O-])cc([N+](=O)[O-])c3C)o2)sc1C(=O)CC(=O)Cc1nc2ccc(Cl)cc2[nH]c1=O | > 100 | > 100 | > 100 | > 100 | > 100 |  | > 100 | > 100 | > 100 | > 100 | > 100 | > 100 | > 100 | > 100 |  |  |  |  |  | 
COC(=O)c1cccc(NC(=O)Nc2ccc3oc(=O)c4ccccc4c3c2)c1 | > 100 | > 100 | > 100 |  | > 100 | > 100 |  |  |  |  |  |  | > 100 |  | > 100 | 46.5 | > 100 | 4.91 | > 100 | 3.5
